Experimental data published in patent publication US4861798A, “Lipoxygenase inhibitory compounds” (Bristol-Myers Company, priority 1987, dated 1989).

Assays:
[1] = test system: cell infiltration (leukocytes); assay: Carrageenan sponge implantation model, cell infiltration; format: in vivo, rat; details: for Leukocyte No.: 6 h
Source text: (§1) The carrageenan sponge implantation model is primarily used to measure the effect of antiinflammatory agents on cell infiltration. An acute inflammatory response is stimulated by the implantation of a small sponge beneath the skin of rats. The sponge normally contains an inflammatory stimulus such as carrageenan and produces a response which is characterized by infiltration of cells and accumulation of fluid. The number of cells in the exudate can be conveniently measured in the exudate fluid.
(§2) The compound of Example I was evaluated for its local effect on cell migration and mediator production in this model. For comparison, indomethacin and BW755C were also evaluated after local application. Polyester sponges were soaked in solutions of 0.5% carrageenan (in normal saline) which also contained 1% or 5% wt/vol of the test compound. The impregnated sponge was inserted through a small incision on the dorsal surface of a lightly anesthetized rat into a subcutaneous pocket formed by blunt dissection. The incision was then closed. The control treatment consisted of a sponge soaked in 0.5% carrageenan in normal saline. Animals were sacrificed 6 hours after sponge implantation. Sponges are dissected out an placed in heparinized saline. The number of infiltrating cells were determined using a coulter counter. The inflammatory mediators prostaglandin E2, LTB4 and TxB2 in the exudate were determined by radioimmunoassay.

[2] = test system: inflammatory mediators prostaglandin E2, LTB4 and TxB2; assay: Carrageenan sponge implantation model, mediator production in exudate; format: in vivo, rat
Source text: as §1, §2

[3] = molecular target: T1, 5-lipoxygenase (Human Leukocyte/PMNL 5-LPO) (Homo sapiens, UniProt P09917); assay: Inhibition of 5-lipoxygenase (5-HETE formation) in human neutrophil/platelet system; format: cell-based; details: for IC50: FIG. 1 table, 95% confidence interval, read-out: IC50 Human PMNL 5-LPO
T1 construct: Human neutrophils and platelets were obtained from the blood of normal volunteers; endogenous in cells; host or cells: human blood leukocytes (neutrophils) of normal volunteers, with 0.1 to 0.5 platelets per leukocyte
T1 sequence (P09917 1-674): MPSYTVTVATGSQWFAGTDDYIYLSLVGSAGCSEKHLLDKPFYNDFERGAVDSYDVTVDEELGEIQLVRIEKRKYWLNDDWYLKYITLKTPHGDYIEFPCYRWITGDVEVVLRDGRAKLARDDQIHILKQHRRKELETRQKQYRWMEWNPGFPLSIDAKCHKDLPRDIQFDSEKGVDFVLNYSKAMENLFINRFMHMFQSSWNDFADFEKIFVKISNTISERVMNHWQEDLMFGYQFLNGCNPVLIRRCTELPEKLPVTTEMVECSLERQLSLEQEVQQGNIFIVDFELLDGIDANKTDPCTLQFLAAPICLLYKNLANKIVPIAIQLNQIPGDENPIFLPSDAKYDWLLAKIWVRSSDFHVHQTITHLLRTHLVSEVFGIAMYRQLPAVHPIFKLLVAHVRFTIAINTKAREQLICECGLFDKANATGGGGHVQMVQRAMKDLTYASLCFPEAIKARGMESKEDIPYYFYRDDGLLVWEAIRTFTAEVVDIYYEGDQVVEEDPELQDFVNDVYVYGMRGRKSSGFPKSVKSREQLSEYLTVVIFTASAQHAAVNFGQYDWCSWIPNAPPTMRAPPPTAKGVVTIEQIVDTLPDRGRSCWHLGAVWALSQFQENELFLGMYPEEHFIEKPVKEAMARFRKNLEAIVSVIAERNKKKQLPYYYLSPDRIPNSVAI
Source text: This test is a measure of the inhibition of the synthesis of lipoxygenase products generated by human neutrophils and platelets. The protocol is similar to that described in the article "Comparative Effects of Indomethacin, Acetylenic Acids, 15-HETE, NDGA and BW755C on the Metabolism of Arachidonic Acid in Human Leukocytes and Platelets", H. Solari, P. Braquet and P. Borgeat, Prost. Leuk. Med. 13, pp. 53-60, 1984.
Human neutrophils and platelets were obtained from the blood of normal volunteers. The blood was collected into tubes containing EDTA as an anticoagulant. The blood was centrifuged at 250×g for 15 minutes and the platelet rich plasma was removed. The cell fraction was mixed with an equal volume of 0.9% saline containing 10 mM dextrose and resuspended in Dulbecco's phosphate buffered saline (PBS) without Mg^++ and Ca^++ and was counted. The cell suspension was adjusted to give a leukocyte count of 2-3×10^7 cells/ml.
Test compounds were dissolved in ethanol and added to polypropylene tubes. To control tubes (drug-free) only ethanol was added. The ethanol was evaporated to dryness under a stream of argon and then 0.1 ml of the cell suspension (2-3×10^6 cells) was added. This mixture was pre-incubated for 5 minutes at 37° and then the reaction was initiated by addition of ^3 H-arachidonic acid, calcium ionophore (A23187), and calcium ion. The final concentration of each component was: arachidonic acid, 10 uM; A23187, […]; calcium ion, […]. After 5 minutes the incubations were stopped by addition of an equal volume of methanol. The tubes were spun at 11,000 g for 2 minutes to pellet the precipitated protein. The supernatant was analyzed by HPLC for 5-HETE. The formation of this product is indicative of 5-lipoxygenase activity. Test drugs were evaluated for their ability to inhibit 5-HETE formation. Percent inhibition of varying concentrations of test drugs was determined in duplicate by comparing the peak quantitation in the presence and absence (control) of drug. […] The IC50 values were calculated from log-dose response curves of pooled data from at least two experiments by linear regression analysis.
The activity was tested by the same method as in the previous example.
The enzyme inhibitory activity of these compounds was tested by the same method.

Human Platelet CO = molecular target: T2, Human Platelet CO (Homo sapiens, UniProt P23219); assay: Inhibition of CO, human platelet; format: cell-based
T2 construct: Human neutrophils and platelets were obtained from the blood of normal volunteers; endogenous in cells; host or cells: human platelets from blood of normal volunteers
T2 sequence (P23219 24-599): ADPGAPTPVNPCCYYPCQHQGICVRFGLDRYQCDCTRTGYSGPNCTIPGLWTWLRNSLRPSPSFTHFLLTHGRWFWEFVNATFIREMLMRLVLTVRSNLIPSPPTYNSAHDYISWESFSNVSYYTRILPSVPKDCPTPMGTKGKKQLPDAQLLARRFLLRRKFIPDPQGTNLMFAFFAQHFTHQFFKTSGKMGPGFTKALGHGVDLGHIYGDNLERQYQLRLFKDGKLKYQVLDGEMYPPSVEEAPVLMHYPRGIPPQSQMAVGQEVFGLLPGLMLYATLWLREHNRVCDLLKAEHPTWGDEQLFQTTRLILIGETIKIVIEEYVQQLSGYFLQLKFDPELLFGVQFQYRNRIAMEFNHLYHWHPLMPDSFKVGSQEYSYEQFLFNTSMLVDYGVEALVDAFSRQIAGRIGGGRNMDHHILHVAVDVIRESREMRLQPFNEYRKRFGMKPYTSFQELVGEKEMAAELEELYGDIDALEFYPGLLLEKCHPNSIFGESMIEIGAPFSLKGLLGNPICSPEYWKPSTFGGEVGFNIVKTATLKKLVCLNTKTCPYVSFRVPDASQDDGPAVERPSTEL

Human Platelet 12-LPO = molecular target: T3, Human Platelet 12-LPO (Homo sapiens, UniProt P18054); assay: Inhibition of 12-LPO, human platelet; format: cell-based; details: @ 100 μM; read-out: % I Human Platelet 12-LPO
T3 construct: Human neutrophils and platelets were obtained from the blood of normal volunteers; endogenous in cells; host or cells: human platelets from blood of normal volunteers
T3 sequence (P18054 1-663): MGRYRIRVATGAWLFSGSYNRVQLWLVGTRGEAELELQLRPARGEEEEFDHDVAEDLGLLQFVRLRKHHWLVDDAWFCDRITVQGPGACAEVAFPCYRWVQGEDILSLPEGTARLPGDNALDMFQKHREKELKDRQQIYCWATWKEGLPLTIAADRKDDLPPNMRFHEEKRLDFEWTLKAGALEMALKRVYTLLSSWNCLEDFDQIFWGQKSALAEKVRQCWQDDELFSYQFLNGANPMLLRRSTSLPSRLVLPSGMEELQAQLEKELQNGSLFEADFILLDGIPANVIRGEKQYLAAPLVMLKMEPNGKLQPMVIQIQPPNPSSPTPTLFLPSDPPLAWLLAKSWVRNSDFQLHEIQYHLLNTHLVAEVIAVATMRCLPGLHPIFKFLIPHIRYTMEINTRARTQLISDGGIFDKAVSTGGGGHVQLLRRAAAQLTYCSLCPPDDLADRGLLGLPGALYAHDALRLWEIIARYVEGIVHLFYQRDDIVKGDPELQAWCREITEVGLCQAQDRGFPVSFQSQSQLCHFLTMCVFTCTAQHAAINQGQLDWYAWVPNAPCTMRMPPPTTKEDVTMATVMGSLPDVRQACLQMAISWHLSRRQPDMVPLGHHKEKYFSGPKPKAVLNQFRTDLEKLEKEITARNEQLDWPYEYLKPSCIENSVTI

[4] = Experiment 2, 0.5% carrageenan plus 5% compound in sponge, control 33.0 ± 3.8
[5] = Experiment 2, 5% compound, control 19.2 ± 1.9
[6] = Experiment 2, 5% compound, control 137.6 ± 13.1
[7] = Experiment 1, 1% compound, control 3.6 ± 1.3
[8] = Experiment 1, 1% compound, control 10.8 ± 3.7
[9] = Experiment 1, 1% compound, control 11.8 ± 4.1

Row | % Inhibition at 100 μm ([3]; 4-alkoxyphenyl compounds) [%] | IC50 [3] [µM] | IC50 (Human Platelet CO; 95% confidence interval given for some) [µM] | inhibition at 100 µM (Human Platelet 12-LPO) [%] | % I Human Platelet CO (Human Platelet CO; @ 100 μM) | Compound | Leukocyte No. [1, 4] | reduction of cell infiltration ([1]; dosed at 5%) [%] | TXB2 [2, 5] [ng/ml Exudate] | PGE2 [2, 6] [ng/ml Exudate] | reduction of cell infiltration ([1]; dosed at 1%) | TXB2 [2, 7] [ng/ml Exudate] | PGE2 [2, 8] [ng/ml Exudate] | LTB4 [2, 9] [ng/ml Exudate] | Leukocyte No. ([1]; Experiment 1, 0.5% carrageenan plus 1% compound in sponge, control 10.8 ± 1.5) | activity in carrageenan sponge implantation model ([1]; in words) | LTB4 ([2]; Experiment 2, 5% compound, control 5.5 ± 0.9) [ng/ml Exudate]
1 |  |  |  |  |  | NC1=NN(c2cccc(C(F)(F)F)c2)CC1 [BW755C, reference compound] | 6.9 ± 1.7 cells/ml (× 10^-6) | 79 | 0.8 ± 0.3 | 3.0 ± 1.0 |  |  |  |  |  |  | 
2 |  |  |  |  |  | COc1ccc2c(c1)c(CC(=O)O)c(C)n2C(=O)c1ccc(Cl)cc1 [Indomethacin, reference compound] |  |  |  |  | did not significantly reduce cell infiltration | < 0.5 | 1.9 ± 0.3 | 1.6 ± 0.5 |  |  | 
3 | 98.3 | 5.7 | 15 | 33 |  | O=C(CCCCCCCCc1ccccc1)NO [Compound 1, 9-Phenylnonanohydroxamic Acid] | < 1 cells/ml (× 10^-6) | 96.1 | 4.1 ± 0.9 | 21.3 ± 4.1 | 36.1% | 0.3 ± 0.1 | 5.7 ± 0.9 | 2.1 ± 1.0 | 6.9 ± .7 cells/ml (× 10^-6) | found to have activity in this in vivo animal system | 2.4 ± 0.9
4 |  | 25.3 |  | 17 | inactive | CN(O)C(=O)CCCCCCCCCCCCCCc1ccccc1 [BMY30228] |  |  |  |  |  |  |  |  |  |  | 
